Test results reported in US20220411372A1, “SMALL-MOLECULE INHIBITORS FOR THE B-CATENIN/B-CELL LYMPHOMA 9 PROTEIN-PROTEIN INTERACTION” (H. Lee Moffitt Cancer Center and Research Institute, Inc., priority 2019, published 2022).
pKi: −log10 of the molar value.

Each compound was assayed against T1, β-catenin/BCL9 PPI (Homo sapiens, UniProt P35222) (assay: AlphaScreen competitive inhibition assay of the β-catenin/BCL9 PPI). Conditions: Table 4, left half, inhibitors 44-48; read-out: Ki.
T1 construct: Full-length β-catenin (residues 1-781) were cloned into a pET-28b vector; made in house; host or cells: E. coli BL21 DE3 (β-catenin); BCL9 peptide synthesized by InnoPep Inc
T1 sequence (P35222 1-781): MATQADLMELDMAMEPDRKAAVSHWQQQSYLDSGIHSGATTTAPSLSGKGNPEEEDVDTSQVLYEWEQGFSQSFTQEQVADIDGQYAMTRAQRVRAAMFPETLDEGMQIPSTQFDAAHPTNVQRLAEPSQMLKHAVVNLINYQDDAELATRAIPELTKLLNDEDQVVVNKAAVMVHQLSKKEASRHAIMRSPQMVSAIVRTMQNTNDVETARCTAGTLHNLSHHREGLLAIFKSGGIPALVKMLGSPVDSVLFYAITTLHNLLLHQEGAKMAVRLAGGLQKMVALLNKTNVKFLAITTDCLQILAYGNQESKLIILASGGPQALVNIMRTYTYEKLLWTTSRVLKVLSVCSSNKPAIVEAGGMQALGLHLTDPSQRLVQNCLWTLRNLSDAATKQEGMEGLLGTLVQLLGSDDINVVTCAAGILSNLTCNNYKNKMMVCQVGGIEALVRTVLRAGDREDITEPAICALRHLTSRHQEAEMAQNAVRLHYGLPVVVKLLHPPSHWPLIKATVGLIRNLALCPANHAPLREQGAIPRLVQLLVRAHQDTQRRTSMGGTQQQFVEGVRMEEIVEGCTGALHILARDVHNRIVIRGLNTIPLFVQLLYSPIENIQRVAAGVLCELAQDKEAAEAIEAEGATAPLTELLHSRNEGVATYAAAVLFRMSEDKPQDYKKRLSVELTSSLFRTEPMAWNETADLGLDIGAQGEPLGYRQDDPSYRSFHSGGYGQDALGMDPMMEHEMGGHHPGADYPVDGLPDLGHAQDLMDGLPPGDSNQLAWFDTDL
Type: binding
Summary of the method: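 5 nM biotinylated BCL9 and 40 nM His6-β-catenin preincubated 30 min at 4° C in pH 7.4 Hepes buffer with 0.01% Triton X-100, 0.1% BSA, 1% DMSO; inhibitor added 1 h at 4° C, then 10 μg/mL donor/acceptor beads 1 h.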

pKi	Structure (SMILES)
> 4.52	CN(Cc1ccc(-c2cn[nH]c2)cc1)C(=O)[C@@H]1CCCN(c2cccc(OC(C)(C)C(=O)N3CCNCC3)c2)C1 [Compound 45, (R)-4-(2-(3-(3-((4-(1H-pyrazol-4-yl)benzyl)(methyl)carbamoyl)piperidin-1-yl)phenoxy)-2-methylpropanoyl)piperazin-1-ium chloride]
> 5.00	CC(C)N(Cc1ccc(-c2cn[nH]c2)cc1)C(=O)[C@@H]1CCCN(c2cccc(OC(C)(C)C(=O)N3CCNCC3)c2)C1 [Compound 47, (R)-4-(2-(3-(3-((4-(1H-pyrazol-4-yl)benzyl)(isopropyl)carbamoyl)piperidin-1-yl)phenoxy)-2-methylpropanoyl)piperazin-1-ium chloride]
> 4.05	CC(C)(Oc1cccc(N2CCC[C@@H](C(=O)N(Cc3ccc(-c4cn[nH]c4)cc3)CC3CC3)C2)c1)C(=O)N1CCNCC1 [Compound 48, (R)-4-(2-(3-(3-((4-(1H-pyrazol-4-yl)benzyl)(cyclopropylmethyl)carbamoyl)piperidin-1-yl)phenoxy)-2-methylpropanoyl)piperazin-1-ium chloride]

Same assay, conditions: Table 4, right half, inhibitors 49-53; read-out: Ki ± SD

pKi	Structure (SMILES)
> 4.52	CC(C)(Oc1cccc(N2CCC[C@@H](C(=O)N(Cc3ccc(-c4cn[nH]c4)cc3)C3CCC3)C2)c1)C(=O)N1CCNCC1 [Compound 49, (R)-4-(2-(3-(3-((4-(1H-pyrazol-4-yl)benzyl)(cyclobutyl)carbamoyl)piperidin-1-yl)phenoxy)-2-methylpropanoyl)piperazin-1-ium chloride]
> 5.00	CC(C)(Oc1cccc(N2CCC[C@@H](C(=O)N(Cc3ccc(-c4cn[nH]c4)cc3)C3CCCC3)C2)c1)C(=O)N1CCNCC1 [Compound 50, (R)-4-(2-(3-(3-((4-(1H-pyrazol-4-yl)benzyl)(cyclopentyl)carbamoyl)piperidin-1-yl)phenoxy)-2-methylpropanoyl)piperazin-1-ium chloride]
> 4.52	CC(C)(Oc1cccc(N2CCC[C@@H](C(=O)N(Cc3ccc(-c4cn[nH]c4)cc3)C3CCCCC3)C2)c1)C(=O)N1CCNCC1 [Compound 51, (R)-4-(2-(3-(3-((4-(1H-pyrazol-4-yl)benzyl)(cyclohexyl)carbamoyl)piperidin-1-yl)phenoxy)-2-methylpropanoyl)piperazin-1-ium chloride]
> 5.30	CCOCCN(Cc1ccc(-c2cn[nH]c2)cc1)C(=O)[C@@H]1CCCN(c2cccc(OC(C)(C)C(=O)N3CCNCC3)c2)C1.Cl [Compound 52, (R)-4-(2-(3-(3-((4-(1H-pyrazol-4-yl)benzyl)(2-ethoxyethyl)carbamoyl)piperidin-1-yl)phenoxy)-2-methylpropanoyl)piperazin-1-ium chloride]
> 4.05	CC(C)(Oc1cccc(N2CCC[C@@H](C(=O)N(CCN)Cc3ccc(-c4cn[nH]c4)cc3)C2)c1)C(=O)N1CCNCC1 [Compound 53, (R)-4-(2-(3-(3-((4-(1H-pyrazol-4-yl)benzyl)(2-ammonioethyl)carbamoyl)piperidin-1-yl)phenoxy)-2-methylpropanoyl)piperazin-1-ium chloride]

Same assay, conditions: Table 5, inhibitors 54-62; read-out: Ki

pKi	Structure (SMILES)
> 5.00	CC(C)(Oc1cccc(N2CCC[C@@H](C(=O)N(Cc3ccc(-c4cn[nH]c4)cc3)C3CC3)C2)c1)C(=O)N1CCCNCC1 [Compound 54, (R)-4-(2-(3-(3-((4-(1H-pyrazol-4-yl)benzyl)(cyclopropyl)carbamoyl)piperidin-1-yl)phenoxy)-2-methylpropanoyl)-1,4-diazepan-1-ium chloride]
< 4.05	CC(C)(Oc1cccc(N2CCC[C@@H](C(=O)N(Cc3ccc(-c4cn[nH]c4)cc3)C3CC3)C2)c1)C(=O)N1CCOCC1 [Compound 56, (R)-N-(4-(1H-pyrazol-4-yl)benzyl)-N-cyclopropyl-1-(3-((2-methyl-1-morpholino-1-oxopropan-2-yl)oxy)phenyl)piperidine-3-carboxamide]
< 4.05	CC(C)(Oc1cccc(N2CCC[C@@H](C(=O)N(Cc3ccc(-c4cn[nH]c4)cc3)C3CC3)C2)c1)C(=O)N1CCCCC1 [Compound 57, (R)-N-(4-(1H-pyrazol-4-yl)benzyl)-N-cyclopropyl-1-(3-((2-methyl-1-oxo-1-(piperidin-1-yl)propan-2-yl)oxy)phenyl)piperidine-3-carboxamide]
> 4.52	CC(C)(Oc1cccc(N2CCC[C@@H](C(=O)N(Cc3ccc(-c4cn[nH]c4)cc3)C3CC3)C2)c1)C(=O)N1C[C@H]2CNC[C@H]2C1 [Compound 58, (3aR,6aS)-5-(2-(3-((R)-3-((4-(1H-pyrazol-4-yl)benzyl)(cyclopropyl)carbamoyl)piperidin-1-yl)phenoxy)-2-methylpropanoyl)octahydropyrrolo[3,4-c]pyrrol-2-ium chloride]
> 5.30	CC(C)(Oc1cccc(N2CCC[C@@H](C(=O)N(Cc3ccc(-c4cn[nH]c4)cc3)C3CC3)C2)c1)C(=O)N1CCC2(CCNC2)C1 (stereo partly drawn) [Compound 59, 7-(2-(3-((R)-3-((4-(1H-pyrazol-4-yl)benzyl)(cyclopropyl)carbamoyl)piperidin-1-yl)phenoxy)-2-methylpropanoyl)-2,7-diazaspiro[4.4]nonan-2-ium chloride]
> 4.52	CC(C)(Oc1cccc(N2CCC[C@@H](C(=O)N(Cc3ccc(-c4cn[nH]c4)cc3)C3CC3)C2)c1)C(=O)N1CC2(CCNCC2)C1 [Compound 60, (R)-2-(2-(3-(3-((4-(1H-pyrazol-4-yl)benzyl)(cyclopropyl)carbamoyl)piperidin-1-yl)phenoxy)-2-methylpropanoyl)-2,7-diazaspiro[3.5]nonan-7-ium 2,2,2-trifluoroacetate]
> 4.52	CC(C)(Oc1cccc(N2CCC[C@@H](C(=O)N(Cc3ccc(-c4cn[nH]c4)cc3)C3CC3)C2)c1)C(=O)N1CCC2(CNC2)C1 [Compound 61, (R)-6-(2-(3-(3-((4-(1H-pyrazol-4-yl)benzyl)(cyclopropyl)carbamoyl)piperidin-1-yl)phenoxy)-2-methylpropanoyl)-2,6-diazaspiro[3.4]octan-2-ium 2,2,2-trifluoroacetate]
> 4.05	CC(C)(Oc1cccc(N2CCC[C@@H](C(=O)N(Cc3ccc(-c4cn[nH]c4)cc3)C3CC3)C2)c1)C(=O)N1CC2(CNC2)C1 [Compound 62, (R)-6-(2-(3-(3-((4-(1H-pyrazol-4-yl)benzyl)(cyclopropyl)carbamoyl)piperidin-1-yl)phenoxy)-2-methylpropanoyl)-2,6-diazaspiro[3.3]heptan-2-ium 2,2,2-trifluoroacetate]

Same assay, conditions: Table 8, inhibitors 82-92; read-out: Ki

pKi	Structure (SMILES)
> 5.00	O=C([C@@H]1CCCN(c2cccc(OC3(C(=O)N4CCNCC4)CC3)c2)C1)N(Cc1ccc(-c2cn[nH]c2)cc1)C1CC1 [Compound 82, (R)-4-(1-(3-(3-((4-(1H-pyrazol-4-yl)benzyl)(cyclopropyl)carbamoyl)piperidin-1-yl)phenoxy)cyclopropane-1-carbonyl)piperazin-1-ium chloride]
> 4.05	O=C([C@@H]1CCCN(c2cccc(OC3(C(=O)N4CCNCC4)CCCC3)c2)C1)N(Cc1ccc(-c2cn[nH]c2)cc1)C1CC1 [Compound 83, (R)-4-(1-(3-(3-((4-(1H-pyrazol-4-yl)benzyl)(cyclopropyl)carbamoyl)piperidin-1-yl)phenoxy)cyclopentane-1-carbonyl)piperazin-1-ium chloride]
> 4.05	O=C(c1cccc(N2CCC[C@@H](C(=O)N(Cc3ccc(-c4cn[nH]c4)cc3)C3CC3)C2)c1)N1CCNCC1 [Compound 85, (R)-4-(3-(3-((4-(1H-pyrazol-4-yl)benzyl)(cyclopropyl)carbamoyl)piperidin-1-yl)benzoyl)piperazin-1-ium chloride]

Same assay, conditions: linear alkyl R1 substitutions; FIG. 4A

inhibitory activity (SAR, AlphaScreen)	Structure (SMILES)
maintained the inhibitory activities	CCOCCN(Cc1ccc(-c2cn[nH]c2)cc1)C(=O)[C@@H]1CCCN(c2cccc(OC(C)(C)C(=O)N3CCNCC3)c2)C1.Cl [Compound 52, (R)-4-(2-(3-(3-((4-(1H-pyrazol-4-yl)benzyl)(2-ethoxyethyl)carbamoyl)piperidin-1-yl)phenoxy)-2-methylpropanoyl)piperazin-1-ium chloride]
